Experimental data from patent publication US11214803B2, “Modulators of YAP1 expression” (Ionis Pharmaceuticals, Inc., priority 2019, dated 2022).
Strand notation (5' to 3'): a small letter for the sugar, then the base; units joined by * are phosphorothioate-linked, units joined directly phosphodiester-linked; [ ] holds rarer units or linkages, { } end groups; capitals alone tell only the bases. k = constrained ethyl (cEt); [5mC] = 5-methylcytosine; d = 2'-deoxy (DNA)

Tested on: Yap1 mRNA
Experiment: Dose-dependent inhibition of human Yap1 in A-431 cells (Example 7, 10,000 cells per well, RTS36584)
Type: cell-based
Conditions: free uptake
Method in brief: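 Yap1 mRNA was expressed as percent of untreated control after normalization to total RNA (RIBOGREEN), and IC50 was derived by log/linear linear regression. The read-out used primer-probe set RTS36584 roughly 48 hours after free-uptake dosing of oligonucleotides into A-431 cells (10,000 cells/well).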

[1] = 15.6 nM, A-431 cells, 10,000 cells per well, approximately 48 hours
[2] = 62.5 nM, A-431 cells, 10,000 cells per well, approximately 48 hours
[3] = 4000.00 nM, A-431 cells, 10,000 cells per well, approximately 48 hours
[4] = A-431 cells, approximately 48 hours, linear regression on log/linear plot
[5] = Table 60, 15.6 nM, A-431 cells 10,000 cells per well, 48 hours
[6] = Table 60, 62.5 nM, A-431 cells 10,000 cells per well, 48 hours
[7] = Table 60, 4000.00 nM, A-431 cells 10,000 cells per well, 48 hours
[8] = Table 60, A-431 cells 10,000 cells per well
[9] = Table 61, 15.6 nM, A-431 cells 10,000 cells per well, 48 hours
[10] = Table 61, 62.5 nM, A-431 cells 10,000 cells per well, 48 hours
[11] = Table 61, 4000.00 nM, A-431 cells 10,000 cells per well, 48 hours
[12] = Table 61, A-431 cells 10,000 cells per well

Question: “958545 (kA*k[5mC]*kT*d[5mC]*dT*dA*dG*dT*dT*dA*d[5mC]*dA*dT*k[5mC]*kA*kT; antisense) [compound 958545]” was tested. Which “Yap1 mRNA, % UTC” value [1] did it give?
Answer: Its value is 75 % UTC.

Question: What about the “Yap1 mRNA, % UTC” value [2] of the same substance?
Answer: The value was 50 % UTC.

Question: What about the “Yap1 mRNA, % UTC” value [3] of the same substance?
Answer: Its value is 8 % UTC.

Question: What about the IC50 [4] of the same substance?
Answer: The IC50 was 100 nM.

Question: Which “Yap1 mRNA, % UTC” value (Table 58, 15.6 nM, A-431 cells 10,000 cells per well, 48 hours) does the source give for “958527 (kG*kT*kA*dA*dG*dT*dA*dA*dG*dA*dA*d[5mC]*dA*kA*kT*k[5mC]; antisense) [compound 958527]” here?
Answer: The value was 89 % UTC.

Question: What about the “Yap1 mRNA, % UTC” value (Table 58, 62.5 nM, A-431 cells 10,000 cells per well, 48 hours) of the same substance?
Answer: Its value is 74 % UTC.

Question: And the “Yap1 mRNA, % UTC” value (Table 58, 4000.00 nM, A-431 cells 10,000 cells per well, 48 hours)?
Answer: The value was 13 % UTC.

Question: What about the IC50 (Table 58, A-431 cells 10,000 cells per well) of the same substance?
Answer: The IC50 was 100 nM.

Question: For “958523 (kT*kT*k[5mC]*d[5mC]*dA*dA*dT*d[5mC]*dG*dA*dG*dA*d[5mC]*kT*kT*kA; antisense) [compound 958523]”, which “Yap1 mRNA, % UTC” value [5] is on record?
Answer: The value was 86 % UTC.

Question: What about the “Yap1 mRNA, % UTC” value [6] of the same substance?
Answer: The value was 64 % UTC.

Question: And the “Yap1 mRNA, % UTC” value [7]?
Answer: Its value is 12 % UTC.

Question: What about the IC50 [8] of the same substance?
Answer: The IC50 was 100 nM.

Question: How did the “Yap1 mRNA, % UTC” value [5] turn out when “958658 (kA*k[5mC]*kA*dG*dT*dA*dT*dA*dA*dT*dA*dT*d[5mC]*k[5mC]*kT*kA; antisense) [compound 958658]” was run?
Answer: Its value is 90 % UTC.

Question: What about the “Yap1 mRNA, % UTC” value [6] of the same substance?
Answer: Its value is 88 % UTC.

Question: And the “Yap1 mRNA, % UTC” value [7]?
Answer: Its value is 29 % UTC.

Question: And the IC50 [8]?
Answer: The IC50 was 400 nM.

Question: “958795 (kT*kA*kT*dT*d[5mC]*d[5mC]*dG*d[5mC]*dA*dT*dT*dG*d[5mC]*k[5mC]*kT*kA; antisense) [compound 958795]” was tested. Which “Yap1 mRNA, % UTC” value [1] did it give?
Answer: The value was 90 % UTC.

Question: What about the “Yap1 mRNA, % UTC” value [2] of the same substance?
Answer: The value was 69 % UTC.

Question: And the “Yap1 mRNA, % UTC” value [3]?
Answer: The value was 20 % UTC.

Question: What about the IC50 [4] of the same substance?
Answer: Its IC50 is 200 nM.

Question: What does the source list for “958508 (kG*kA*kG*dA*dG*d[5mC]*dA*dG*dA*dT*dA*dA*dT*k[5mC]*kG*kA; antisense) [compound 958508]”?
Answer: Yap1 mRNA, % UTC [5]: 65 % UTC; Yap1 mRNA, % UTC [6]: 64 % UTC; Yap1 mRNA, % UTC [7]: 13 % UTC; IC50 [8]: 100 nM

Question: For “958799 (kA*kT*kT*dA*d[5mC]*dT*d[5mC]*dA*dA*dT*d[5mC]*dA*dT*kG*kG*kT; antisense) [compound 958799]”, which “Yap1 mRNA, % UTC” value [9] is on record?
Answer: Its value is 88 % UTC.

Question: What about the “Yap1 mRNA, % UTC” value [10] of the same substance?
Answer: The value was 53 % UTC.

Question: And the “Yap1 mRNA, % UTC” value [11]?
Answer: Its value is 10 % UTC.

Question: What about the IC50 [12] of the same substance?
Answer: Its IC50 is 100 nM.

Question: What does the source list for “958644 (kA*kT*kG*dA*dT*d[5mC]*dA*dA*dA*d[5mC]*d[5mC]*dT*dT*kT*kT*k[5mC]; antisense) [compound 958644]”?
Answer: Yap1 mRNA, % UTC [9]: 97 % UTC; Yap1 mRNA, % UTC [10]: 85 % UTC; Yap1 mRNA, % UTC [11]: 24 % UTC; IC50 [12]: 300 nM

Question: How did the “Yap1 mRNA, % UTC” value (Table 59, 15.6 nM, A-431 cells 10,000 cells per well, 48 hours) turn out when “958767 (kA*k[5mC]*kG*dA*dA*dT*dA*dA*dG*dG*d[5mC]*dA*dT*kT*kA*kG; antisense) [compound 958767]” was run?
Answer: The value was 101 % UTC.

Question: What about the “Yap1 mRNA, % UTC” value (Table 59, 62.5 nM, A-431 cells 10,000 cells per well, 48 hours) of the same substance?
Answer: The value was 57 % UTC.

Question: And the “Yap1 mRNA, % UTC” value (Table 59, 4000.00 nM, A-431 cells 10,000 cells per well, 48 hours)?
Answer: The value was 10 % UTC.

Question: And the IC50 (Table 59, A-431 cells 10,000 cells per well)?
Answer: The IC50 was 100 nM.

Question: How did the “Yap1 mRNA, % UTC” value [5] turn out when “958543 (kA*k[5mC]*k[5mC]*dT*dT*dA*dT*dA*dG*dT*dA*dT*dT*k[5mC]*kT*kA; antisense) [compound 958543]” was run?
Answer: Its value is 84 % UTC.

Question: And the “Yap1 mRNA, % UTC” value [6]?
Answer: The value was 63 % UTC.

Question: And the “Yap1 mRNA, % UTC” value [7]?
Answer: The value was 18 % UTC.

Question: What about the IC50 [8] of the same substance?
Answer: The IC50 was 100 nM.

Question: What does the source list for “958546 (k[5mC]*kA*kT*dA*d[5mC]*dT*d[5mC]*dT*dA*dG*dT*dT*dA*k[5mC]*kA*kT; antisense) [compound 958546]”?
Answer: Yap1 mRNA, % UTC (Table 57, 15.6 nM, A-431 cells 10,000 cells per well, 48 hours): 91 % UTC; Yap1 mRNA, % UTC (Table 57, 62.5 nM, A-431 cells 10,000 cells per well, 48 hours): 72 % UTC; Yap1 mRNA, % UTC (Table 57, 4000.00 nM, A-431 cells 10,000 cells per well, 48 hours): 22 % UTC; IC50 (Table 57, A-431 cells 10,000 cells per well): 200 nM

Question: What does the source list for “958659 (kG*kT*kT*dG*dT*dA*dT*dT*dA*d[5mC]*dT*d[5mC]*dT*k[5mC]*k[5mC]*kA; antisense) [compound 958659]”?
Answer: Yap1 mRNA, % UTC [9]: 91 % UTC; Yap1 mRNA, % UTC [10]: 68 % UTC; Yap1 mRNA, % UTC [11]: 9 % UTC; IC50 [12]: 100 nM
